Data set [1] concerns the target Alcohol dehydrogenase class-3 (Homo sapiens, UniProt P11766). Put plainly: Inhibition of human GSNOR assessed as reduction in NADH consumption after 3 mins by spectrophotometric analysis.
The target in data set [2] is T1, Cytochrome P450 1A2 (Homo sapiens, UniProt P05177).
T1 sequence (P05177 whole entry): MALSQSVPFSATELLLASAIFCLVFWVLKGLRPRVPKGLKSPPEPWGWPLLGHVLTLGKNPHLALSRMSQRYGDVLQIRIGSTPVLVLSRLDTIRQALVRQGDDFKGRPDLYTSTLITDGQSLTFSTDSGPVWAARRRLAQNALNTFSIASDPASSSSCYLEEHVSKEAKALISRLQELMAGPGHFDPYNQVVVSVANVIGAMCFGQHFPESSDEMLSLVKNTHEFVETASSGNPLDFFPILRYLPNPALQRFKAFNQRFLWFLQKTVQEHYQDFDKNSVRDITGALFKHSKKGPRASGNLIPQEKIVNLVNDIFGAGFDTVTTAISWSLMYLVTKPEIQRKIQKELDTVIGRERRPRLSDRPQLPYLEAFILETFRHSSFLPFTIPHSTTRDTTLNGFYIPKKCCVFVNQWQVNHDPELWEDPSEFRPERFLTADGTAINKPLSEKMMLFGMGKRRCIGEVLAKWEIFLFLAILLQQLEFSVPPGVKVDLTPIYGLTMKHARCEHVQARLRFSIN
Put plainly: (§1) Inhibition of CYP1A2 in human liver microsomes at 10 uM after 20 mins in presence of NADPH by LC/MS/MS analysis relative to control. Type of data set: ADME. The settings on record: microsomes, 20 min, 10 µM.

For data set [3], the target named is Cytochrome P450 2D6 (Homo sapiens, UniProt P10635). Nature of the data set: (§2) Inhibition of CYP2D6 in human liver microsomes at 10 uM after 20 mins in presence of NADPH by LC/MS/MS analysis relative to control. Format: ADME. To be noted: microsomes, 20 min, 10 µM.
Data set [4] addresses Cytochrome P450 3A4 (Homo sapiens, UniProt P08684). Nature of the data set: (§3) Inhibition of CYP3A4 in human liver microsomes at 10 uM after 20 mins in presence of NADPH by LC/MS/MS analysis relative to control. Type of data set: ADME. The settings on record: microsomes, 20 min, 10 µM.
For data set [5], the target named is CYP2C9 (Homo sapiens, UniProt P11712). Put plainly: Inhibition of CYP2C9 in human liver microsomes at 10 uM after 20 mins in presence of NADPH by LC/MS/MS analysis relative to control. Format: ADME.
Data set [6] addresses CYP2C19 (Homo sapiens, UniProt P33261). Put plainly: Inhibition of CYP2C19 in human liver microsomes at 10 uM after 40 mins in presence of NADPH by LC/MS/MS analysis relative to control. Type of data set: ADME.
Data set [7] relates to Mus musculus. Put plainly: Anti-inflammatory activity in C57BL/6 mouse model of cigarette smoke induced chronic obstructive pulmonary disease assessed as total leukocyte count in bronchoalveolar lavage at 5 mg/kg, po BID administered 1 hr prior to both smoke exposure for 7 days by hemocytometry. Format: functional.
The test system of data set [8] is Mus musculus. Nature of the data set: Anti-inflammatory activity in C57BL/6 mouse model of cigarette smoke induced chronic obstructive pulmonary disease assessed as neutrophil level in bronchoalveolar lavage at 5 mg/kg, po BID administered 1 hr prior to both smoke exposure for 7 days by Leishman's staining based assay. Type of data set: functional.
The subject of data set [9] is Mus musculus. Nature of the data set: Anti-inflammatory activity in C57BL/6 mouse model of cigarette smoke induced chronic obstructive pulmonary disease assessed as macrophages level in bronchoalveolar lavage at 5 mg/kg, po BID administered 1 hr prior to both smoke exposure for 7 days by Leishman's staining based assay. Type of data set: functional.
Data set [10] is described as follows: Metabolic stability of human liver microsomes assessed as parent compound remaining at 0.1 uM after 60 mins in presence of NADPH by LC/MS/MS analysis. Format: ADME, microsome. To be noted: read-out: Stability.
The nature of data set [11]: Metabolic stability of rat liver microsomes assessed as parent compound remaining at 0.1 uM after 60 mins in presence of NADPH by LC/MS/MS analysis. Type of data set: ADME, microsome. The settings on record: read-out: Stability.
The nature of data set [12]: Metabolic stability of mouse liver microsomes assessed as parent compound remaining at 0.1 uM after 60 mins in presence of NADPH by LC/MS/MS analysis. Format: ADME, microsome. To be noted: read-out: Stability.
Data set [13] deals with T2, CYP1A2 (Homo sapiens, UniProt P05177).
T2 sequence (P05177 whole entry): T1 sequence (P05177 whole entry)
The data set is described as §1. Format: ADME. The settings on record: liver microsomes.

The target of data set [14] is CYP3A4 (Homo sapiens, UniProt P08684). Described as §3. To be noted: liver microsomes. Type of data set: ADME.
Data set [15] addresses CYP2D6 (Homo sapiens, UniProt P10635). The description is as §2. Format: ADME. To be noted: liver microsomes.
The nature of data set [16]: Clearance in C57/BL6 mouse at 3 mg/kg, iv. To be noted: in vivo. Format: ADME, organism-based.
Data set [17] in a line: Volume of distribution in C57/BL6 mouse at 3 mg/kg, iv. The settings on record: in vivo, read-out: Vz. Type of data set: ADME, organism-based.
The nature of data set [18]: Half life in C57/BL6 mouse at 3 mg/kg, iv. Type of data set: ADME, organism-based. To be noted: in vivo.
Data set [19] is described as follows: Cmax in C57/BL6 mouse at 30 mg/kg, po. Type of data set: ADME, organism-based. Also on record: dose 30 mg/kg, route oral. To be noted: in vivo.
Data set [20] in a line: AUC (0 to 24 hrs) in C57/BL6 mouse at 30 mg/kg, po. Format: ADME, organism-based. Also on record: time < 24 hr, dose 30 mg/kg, route oral. To be noted: in vivo.
Data set [21] can be described thus: Tmax in C57/BL6 mouse at 30 mg/kg, po. Format: ADME, organism-based. The settings on record: in vivo.
Data set [22] can be described thus: Half life in C57/BL6 mouse at 30 mg/kg, po. Type of data set: ADME, organism-based. To be noted: in vivo.
Data set [23] is described as follows: Oral bioavailability in C57/BL6 mouse at 30 mg/kg. Format: ADME, organism-based. To be noted: in vivo.
The nature of data set [24]: Ratio of drug uptake in lung to plasma of C57/BL6 mouse at 3 mg/kg, iv or 30 mg/kg, po. Type of data set: ADME, organism-based.

Alcohol dehydrogenase class-3, sequence (P11766 whole entry): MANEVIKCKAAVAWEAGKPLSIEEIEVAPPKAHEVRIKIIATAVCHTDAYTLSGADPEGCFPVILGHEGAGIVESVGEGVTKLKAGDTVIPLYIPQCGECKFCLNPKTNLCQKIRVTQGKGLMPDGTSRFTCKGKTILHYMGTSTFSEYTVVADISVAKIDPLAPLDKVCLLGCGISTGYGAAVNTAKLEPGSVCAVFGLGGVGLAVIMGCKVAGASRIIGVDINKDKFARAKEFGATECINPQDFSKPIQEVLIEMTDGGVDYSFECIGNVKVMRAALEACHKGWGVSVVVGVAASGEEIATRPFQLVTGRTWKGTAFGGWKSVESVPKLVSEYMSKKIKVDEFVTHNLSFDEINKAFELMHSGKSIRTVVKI
CYP2C19, sequence (P33261 whole entry): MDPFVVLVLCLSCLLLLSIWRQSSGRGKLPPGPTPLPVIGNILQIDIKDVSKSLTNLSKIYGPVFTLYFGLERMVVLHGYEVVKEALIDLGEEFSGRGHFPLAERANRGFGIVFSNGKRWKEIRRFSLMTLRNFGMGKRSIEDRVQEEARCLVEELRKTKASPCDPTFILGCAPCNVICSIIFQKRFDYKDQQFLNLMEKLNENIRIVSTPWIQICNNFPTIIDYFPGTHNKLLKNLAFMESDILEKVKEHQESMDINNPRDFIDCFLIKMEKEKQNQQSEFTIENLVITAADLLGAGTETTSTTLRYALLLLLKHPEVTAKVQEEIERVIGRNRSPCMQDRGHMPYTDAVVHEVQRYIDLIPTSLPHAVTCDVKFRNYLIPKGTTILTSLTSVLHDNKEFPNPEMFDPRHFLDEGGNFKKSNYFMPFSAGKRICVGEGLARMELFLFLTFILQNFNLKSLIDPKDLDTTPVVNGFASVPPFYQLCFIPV
CYP2C9, sequence (P11712 whole entry): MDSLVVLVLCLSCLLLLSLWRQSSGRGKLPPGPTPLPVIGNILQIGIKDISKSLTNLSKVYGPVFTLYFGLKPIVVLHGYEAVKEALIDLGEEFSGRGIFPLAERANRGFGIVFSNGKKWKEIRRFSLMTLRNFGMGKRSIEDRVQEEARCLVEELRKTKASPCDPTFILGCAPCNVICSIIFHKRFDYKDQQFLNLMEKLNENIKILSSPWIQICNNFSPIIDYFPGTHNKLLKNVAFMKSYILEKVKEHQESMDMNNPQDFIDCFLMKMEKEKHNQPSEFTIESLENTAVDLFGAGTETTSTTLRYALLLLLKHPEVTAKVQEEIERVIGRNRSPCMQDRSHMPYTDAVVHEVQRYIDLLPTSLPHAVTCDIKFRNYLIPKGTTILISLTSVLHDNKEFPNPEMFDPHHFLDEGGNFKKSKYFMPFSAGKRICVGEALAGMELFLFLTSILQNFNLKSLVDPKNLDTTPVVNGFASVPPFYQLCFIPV
Cytochrome P450 2D6, sequence (P10635 whole entry): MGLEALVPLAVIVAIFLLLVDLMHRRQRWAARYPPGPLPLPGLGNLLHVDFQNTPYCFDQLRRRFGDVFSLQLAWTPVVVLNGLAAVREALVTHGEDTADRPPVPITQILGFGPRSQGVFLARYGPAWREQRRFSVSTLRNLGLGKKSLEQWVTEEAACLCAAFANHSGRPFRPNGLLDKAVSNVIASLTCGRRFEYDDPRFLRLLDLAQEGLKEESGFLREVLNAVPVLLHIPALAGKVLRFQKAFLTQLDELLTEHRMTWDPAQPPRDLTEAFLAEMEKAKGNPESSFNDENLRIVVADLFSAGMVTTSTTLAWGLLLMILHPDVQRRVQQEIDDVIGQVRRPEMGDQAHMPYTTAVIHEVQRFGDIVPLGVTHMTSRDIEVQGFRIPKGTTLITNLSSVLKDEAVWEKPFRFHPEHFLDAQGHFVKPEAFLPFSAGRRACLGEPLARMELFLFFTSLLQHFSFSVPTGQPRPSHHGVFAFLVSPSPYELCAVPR
CYP3A4, sequence (P08684 whole entry): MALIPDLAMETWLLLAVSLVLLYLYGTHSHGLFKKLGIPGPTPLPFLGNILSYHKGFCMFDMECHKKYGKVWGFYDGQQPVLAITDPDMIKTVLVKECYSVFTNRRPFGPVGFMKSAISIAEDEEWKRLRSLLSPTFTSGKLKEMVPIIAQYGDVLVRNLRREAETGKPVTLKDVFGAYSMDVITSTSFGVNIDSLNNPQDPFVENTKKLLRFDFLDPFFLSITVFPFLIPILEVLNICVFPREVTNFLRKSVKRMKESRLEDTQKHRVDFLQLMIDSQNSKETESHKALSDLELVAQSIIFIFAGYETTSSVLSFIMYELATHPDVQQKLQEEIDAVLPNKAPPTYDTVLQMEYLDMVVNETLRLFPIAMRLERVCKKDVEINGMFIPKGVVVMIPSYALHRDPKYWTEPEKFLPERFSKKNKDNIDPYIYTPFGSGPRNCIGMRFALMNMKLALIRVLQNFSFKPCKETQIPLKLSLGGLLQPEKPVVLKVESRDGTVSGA
CYP2D6, sequence (P10635 whole entry): as the sequence (P10635 whole entry) above
Cytochrome P450 3A4, sequence (P08684 whole entry): as the sequence (P08684 whole entry) above

Consider `Fc1cc(-c2nnn[nH]2)ccc1-c1ncc(-n2ccnc2)cc1Cl`, for which, in [1], the half-inhibitory concentration (IC50) worked out at 27 nM. The “inhibition (INH)” value in [2], in data set [3] and in data set [4] was “Not Active” throughout. Besides, in data set [5], the inhibition at 20 min, 10 µM stood at 50%. In addition, in data set [6], the inhibition at 40 min, 10 µM was found to be 42%.

Consider `O=C(Nc1c(Cl)cncc1Cl)c1ccc(OC(F)F)c(OCC2CC2)c1` [ROFLUMILAST], for which the Activity in data set [7] was determined as 58%; in data set [8], 40%; in data set [9], 75%.

In the case of `CCc1cc(-n2ccnc2C)ccc1-c1ccc(-c2nnn[nH]2)cc1`, the IC50 in [1] was determined as 24 nM. The remaining at 1 h, 0.1 µM in data set [10] turned out to be 5%; in data set [11], 99%; in data set [12] it was 87%. Also, the inhibition at 20 min, 10 µM came out at 13% in [13], 18% in data set [14] and 48% in data set [5]. Besides, in data set [3], the “inhibition (INH)” value was “Not Active”. Further, the inhibition at 40 min, 10 µM in data set [6] is 67%.

In the case of `Cc1cc(-n2ccnc2)cnc1-c1ccc(-c2nnn[nH]2)cc1F`, the half-maximal inhibitory concentration (IC50) in [1] was found to be 14 nM. For the same molecule, the remaining at 1 h, 0.1 µM in data set [10] stood at 100%; in data set [11] it was 53%; in [12] it was 42%. The inhibition at 20 min, 10 µM in data set [13] is -15%; in data set [15], 12%; in data set [14] it was 19%; in data set [5] it was 60%. Also, the inhibition at 40 min, 10 µM in [6] is 45%. In [16], this molecule yielded a clearance of 17 mL/min/kg. For the same molecule, the Vd in [17] turned out to be 2.8 L/kg. In addition, the half-life in data set [18] was 114 min; in data set [22], 318 min. The same molecule had a Cmax in data set [19] of 2560 ng/mL. This molecule showed an AUC(0-t) at 24 h in data set [20] of 14200 ng·h/mL. Also, the time to peak (Tmax) in [21] is 30 min. Besides, in [23], the bioavailability came to 49%. In [24], the partition ratio (Kp) was found to be 0.62.

For the origin of these results see ChEMBL document CHEMBL4257571, “Discovery of 5-(2-chloro-4'-(1H-imidazol-1-yl)-[1,1'-biphenyl]-4-yl)-1H-tetrazole as potent and orally efficacious S-nitrosoglutathione reductase (GSNOR) inhibitors for the potential treatment of COPD” (Bioorg Med Chem Lett, 2018).
